{"source": "patent US4650888A", "about": "“Pentaerythritol derivative” (Chugai Seiyaku Kabushiki Kaisha, priority 1984, dated 1987)", "tested_on": "Shay rats (pylorus-ligated, gastric ulcers in the forestomach)", "assay": "Anti-ulcer activity on Shay rats", "type": "in vivo", "conditions": "male SD rats, 300 mg/kg orally, 16 hours", "method": "Anti-ulcer activity on Shay rats:\nMale SD rats (180-200 g) were deprived of food for 48 hours and had free access to water. Under ether anesthesia the abdomen of each rat was incised and the pylorus ligated. Concurrently the test complex was orally administered and the abdomen was closed. The animals were killed 16 hours later by an overdose, and the stomach of each rat removed. The stomach was incised along the greater curvature and examined for gastric ulcers developed in the forestomach. The damaged mucosa in shay ulcers was measured under a dissecting microscope (x10) with a square grid, summed, and arbitrarily classified into 5 degrees by an erosion index.", "data": [{"smiles": "O=S(=O)([O-])OCC(COCC(COS(=O)(=O)[O-])(COS(=O)(=O)[O-])COS(=O)(=O)[O-])(COS(=O)(=O)[O-])COS(=O)(=O)[O-].[Na+].[Na+].[Na+].[Na+].[Na+].[Na+]", "note": "[Na salt, Sodium salt of sulfuric acid ester of dipentaerythritol]", "values": [{"measurement": "Erosion Index (mean ± SE)", "value": "1.4 ± 0.2"}, {"measurement": "Percent Inhibition (%)", "setting": "versus control (H2O)", "value": 58.8, "unit": "%"}]}]}
